PMC3933250 (Annals of Oncology, 2014)

Columns and labels:
[1] = Cilengitide pharmacokinetic profile in plasma during cycle 1; type: in vivo, human; details: PFE + CIL1W and PFE + CIL2W groups
R/M-SCCHN patients = details: ≤2000 mg cilengitide plus PFE, phase I part; cited from earlier work

SMILES: CC(C)[C@H]1C(=O)N[C@@H](CCCN=C(N)N)C(=O)NCC(=O)N[C@@H](CC(=O)O)C(=O)N[C@H](Cc2ccccc2)C(=O)N1C [cilengitide, Cilengitide]
- Influence of the different cilengitide dosing on cetuximab exposure [1]: no clinically relevant influence
- Dose-limiting or unexpected toxicities (R/M-SCCHN patients): no dose-limiting or unexpected toxicities
